# Source: ChEMBL document CHEMBL5729359, “Tri-substituted heteroaryl derivatives as Src homology-2 phosphatase inhibitors” (2022)
# Molecular target: T1, Tyrosine-protein phosphatase non-receptor type 11 (Homo sapiens, UniProt Q06124)
# T1 sequence (Q06124 whole entry): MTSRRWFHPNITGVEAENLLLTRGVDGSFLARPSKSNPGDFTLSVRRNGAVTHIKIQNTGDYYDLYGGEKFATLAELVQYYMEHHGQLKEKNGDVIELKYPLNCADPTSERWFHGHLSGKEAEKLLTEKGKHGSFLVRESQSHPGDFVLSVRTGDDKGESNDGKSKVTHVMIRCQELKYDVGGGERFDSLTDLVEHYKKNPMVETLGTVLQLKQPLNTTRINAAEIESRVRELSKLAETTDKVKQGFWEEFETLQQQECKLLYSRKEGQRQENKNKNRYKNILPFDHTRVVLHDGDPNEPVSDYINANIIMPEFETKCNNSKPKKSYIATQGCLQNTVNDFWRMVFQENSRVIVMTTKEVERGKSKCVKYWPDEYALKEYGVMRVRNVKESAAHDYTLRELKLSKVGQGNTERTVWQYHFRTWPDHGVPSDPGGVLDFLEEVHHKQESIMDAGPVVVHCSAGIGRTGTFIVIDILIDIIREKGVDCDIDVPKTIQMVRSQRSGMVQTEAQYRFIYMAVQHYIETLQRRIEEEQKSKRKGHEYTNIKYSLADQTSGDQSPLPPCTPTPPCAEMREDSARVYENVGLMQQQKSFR
# Assay: At the basal state, SHP2 is auto-inhibited and access of substrates to the catalytic site is blocked by the […] interactions between the SH2 domains and the PTP domain. When bis-tyrosyl-phosphorylated peptides bind to SH2 domain of SHP2, the PTP domain becomes available for substrate recognition and reaction catalysis and SHP2 is allosterically activated. SHP2 catalytic activity can be measured using a fluorogenic artificial substrate DiFMUP.The phosphatase reactions were carried out at room temperature in 384-well black polystyrene plates (Greiner Bio-One, Cat #784076) using assay buffers containing 60 mM HEPES, pH 7.2, 75 mM NaCl, 75 mM KCl, 1 mM EDTA, 0.05% P-20, and 5 mM DTT.0.33 nM of […] was co-incubated with of 0.5 μM of bisphos-IRS 1 peptide (sequence: H2N-LN(pY)IDLDLV(dPEG8)LST(pY)ASINFQK-amide) and various concentrations of compounds for 30-60 min at room temperature. Then the reaction was initiated by addition of the surrogate substrate DiFMUP (Invitrogen, Cat #D6567, 100 uM final).The real-time conversion of DiFMUP to DiFMU (6,8-difluoro-7-hydroxyl-4-methyl-coumarin) was measured every 5 min for 30 min using a microplate reader (CLARIOstar, BMG Labtech) with excitation and emission wavelengths of 340 nm and 450 nm, respectively. Initial reaction rates were determined by linear fitting of the data and the inhibitor dose response curves were analyzed using normalized IC50 regression curve fitting with control based normalization.
row,Structure (SMILES),IC50
1,C[C@@H]1OCC2(CCN(c3ncc(Sc4ccnc(N)c4Cl)nc3[S+](C)[O-])CC2)[C@@H]1N (stereo partly specified),13 nM
2,COc1nccc(Sc2cnc(N3CCC4(CC3)CO[C@@H](C)[C@H]4N)c([S+](C)[O-])n2)c1Cl (stereo partly specified),18 nM
3,C[C@@H]1OCC2(CCN(c3ncc(Sc4cc5[nH]c6c(c5nc4Cl)CC(O)CC6)nc3CO)CC2)[C@@H]1N (stereo partly specified),3.5 nM
4,C[C@@H]1OCC2(CCN(c3ncc(Sc4ccnc(Cl)c4Cl)nc3[S+](C)[O-])CC2)[C@@H]1N (stereo partly specified),6 nM
5,C[C@@H]1OCC2(CCN(c3ncc(Sc4ccnc(F)c4Cl)nc3[S+](C)[O-])CC2)[C@@H]1N (stereo partly specified),21 nM
6,C[C@@H]1OCC2(CCN(c3ncc(Sc4cccnc4C(F)(F)F)nc3[S+](C)[O-])CC2)[C@@H]1N (stereo partly specified),85 nM
7,C[C@@H]1OCC2(CCN(c3ncc(Sc4cc(N)nc(Cl)c4Cl)nc3[S+](C)[O-])CC2)[C@@H]1N (stereo partly specified),3 nM
8,C[C@@H]1OCC2(CCN(c3ncc(Sc4ccnc(N)c4Cl)nc3CO)CC2)[C@@H]1N,0.9 nM
9,Nc1nccc(Sc2cnc(N3CCC4(CC3)CCC3(CC3)C4N)c(CO)n2)c1Cl (stereo unspecified),3 nM
10,C[C@@H]1OCC2(CCN(c3ncc(Sc4ccnc(N)c4Cl)nc3O)CC2)[C@@H]1N,13 nM
11,C[C@@H]1OCC2(CCN(c3ncc(Sc4ccnc(N)c4Cl)nc3Cl)CC2)[C@@H]1N,12 nM
12,C[C@@H]1OCC2(CCN(c3ncc(Sc4cc5[nH]c6c(c5nc4Cl)CCCC6O)nc3CO)CC2)[C@@H]1N (stereo partly specified),4.8 nM
13,Nc1nccc(Sc2cnc(N3CCC4(CC3)Cc3ncccc3[C@H]4N)c(CO)n2)c1Cl,0.6 nM
14,COC1CCc2[nH]c3cc(Sc4cnc(N5CCC6(CC5)CO[C@@H](C)[C@H]6N)c(CO)n4)c(Cl)nc3c2C1 (stereo partly specified),5.5 nM
15,CN1C(=O)CCC12CC(N)C1(CCN(c3ncc(Sc4ccnc(N)c4Cl)nc3CO)CC1)C2 (stereo unspecified),269 nM
16,C[C@@H]1OCC2(CCN(c3ncc(Sc4ccnc(N5CCCC5)c4Cl)nc3[S+](C)[O-])CC2)[C@@H]1N (stereo partly specified),13 nM
